The values that follow come from PubChem BioAssay (NCI).

Assay in all cases: growth of human tumour cells (NCI), 48 h
The test system of assay [1] is DLD-1 colon.
Assay [2] concerns DMS 114 small cell lung.
In assay [3] the test system is HOP-18 NSCLC.
Assay [4] relates to M19-MEL melanoma.
Assay [5] deals with DMS 273 small cell lung.
Assay [6] relates to RXF-631 renal.
Assay [7] has as its system XF 498 CNS.
The subject of assay [8] is SNB-78 CNS.
In assay [9] the test system is MDA-N.

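Grown in 96-well plates, cells were treated for 48 hours with each compound at five concentrations. Insufficient inhibition: endpoint recorded as highest concentration tested. Here, GI50 denotes the concentration required for 50% inhibition of growth. The concentration for full growth arrest is given as TGI.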 Bounds are passed on as bounds.

Consider `[N-]=[N+]=Nc1ccccc1-[n+]1noc([O-])c1Br`, for which the TGI in [1], in assay [2], in assay [3] and in assay [4] was above 100 µM throughout.

As to `COCC1C(=O)c2cc3c(cc2C12C=CC1(C=C2)OCCO1)OCO3` (centres undefined), the TGI stood at 6.5 µM in assay [1]; 11.6 µM in assay [2]; 29.9 µM in [5]; 14.7 µM in assay [4]; 27.7 µM in assay [6]; 17.9 µM in assay [7].

As for `CNc1nnnn1C1OC(CO)C(O)C1O` (centres undefined), the TGI in assay [1], in [2], in assay [5], in assay [4], in assay [6] and in [8] was above 100 µM throughout. Also, in assay [7], the TGI stood at 83.4 µM.

`O=C1CSC(=S)N1c1ccc(F)cc1F`: in assay [9], the TGI was above 100 µM.

For `COC(=O)CSc1ccccc1`, the TGI in assay [1], in assay [5], in assay [3], in assay [4], in [6] and in assay [8] was above 100 µM each time. The compound further came in with a TGI in assay [7] above 100 µM.

For `N#Cc1ccc(/C=N\N2C(=O)c3ccccc3C2=O)cc1`, the TGI in [1], in assay [2], in [5], in [3], in assay [4] and in [8] was above 100 µM each time. Further, the TGI in [7] was above 100 µM.

Consider `Cn1c(=O)nc2n(-c3ccc(F)cc3)c3ccccc3nc-2c1=O`, for which the TGI was 62.1 µM in assay [1]; 28.6 µM in assay [2]; 36 µM in assay [5]; above 100 µM in assay [3]; 10.6 µM in assay [4]; 42.2 µM in assay [8]. For the same compound, the TGI in assay [7] was found to be 34.3 µM.

For `CSC(=S)N/N=C/c1ccccc1`, the TGI in assay [9] was above 100 µM.

As to `O=S(=O)(O)c1ccc(Cl)cc1.[Cd]`, in assay [9], the GI50 is 22.1 µM and the TGI was found to be 68.9 µM.

As to `COc1cc(C2c3cc4c(cc3[C@H](NC(=O)c3cccs3)C3COC(=O)[C@H]23)OCO4)cc(OC)c1OC` (some centres undefined), the TGI in [1] was 36.8 µM; in assay [5], above 100 µM; in assay [3], above 100 µM; in assay [8] it was above 100 µM.

With `COC(=O)NNc1c([N+](=O)[O-])cnn(-c2ccccc2)c1=O`, the TGI is 3.91 µM in assay [1]; 13.8 µM in assay [2]; 4 µM in assay [5]; 6.28 µM in assay [3]; 3.43 µM in [4]; 4.79 µM in assay [9]. This compound displayed a TGI in assay [6] of 3.88 µM.

Consider `COc1ccc2nc3cc(Cl)ccc3c(NCCC(=O)OCC(O)C(O)C(O[C@H](C)C(=O)NC(C)C(=O)NC(CCC(N)=O)C(=O)OCc3ccccc3)C(C=O)NC(C)=O)c2c1` (some centres undefined), for which the TGI in assay [1] is 33.6 µM; in [5] it was 27.6 µM; in [4], 34.4 µM; in assay [6], 36.9 µM; in assay [8], 80.8 µM; in assay [7], 33.5 µM.

As to `COc1ccc2c(CC(=O)O)cc(=O)oc2c1`, the TGI in assay [9] is above 100 µM.

In assay [9], `Cc1cc(Cl)ccc1NC(=O)/C(Cl)=C(/Cl)C(=O)O` returned a TGI of 60.9 µM.

In assay [9], `O=C(Nc1ccc(Cl)c(Cl)c1)C(=O)C(C1OC(=O)c2ccccc21)[N+](=O)[O-]` (centres undefined) returned a TGI above 100 µM.

With `COc1ccc(C(=O)C(c2ccc(OC)cc2)C2C(=O)Oc3ccccc32)cc1` (centres undefined), the GI50 in assay [1], in assay [2], in [5], in assay [4] and in assay [7] was above 100 µM in each case. Also, the TGI in assay [1], in [2], in assay [5], in assay [3], in assay [4] and in [8] was above 100 µM throughout. Further, in [7], the TGI was above 100 µM.

Turning to `COc1ccc(C(=O)/C(=N/Nc2ccccc2)c2ccc(OC)cc2)cc1`, the TGI in [1], in assay [2], in assay [5], in [3], in assay [4] and in assay [6] was above 100 µM in each case. Moreover, the TGI in assay [8] and in assay [7] was above 100 µM throughout.

`COc1ccc(NC(=O)CC/C(CC(=O)c2ccccc2Cl)=N\Nc2nnc(C)n2N)cc1`: the TGI in assay [1], in assay [2], in [5], in assay [3], in assay [4] and in assay [6] was above 100 µM throughout. Besides, in [8], the TGI was above 100 µM.

With `O=C(CC1(O)C(=O)Nc2c(Cl)cccc21)c1ccccc1` (centres undefined), the TGI in assay [1], in assay [2], in assay [5], in assay [3], in assay [8] and in assay [7] was above 100 µM in each case.

As for `CN(C)c1ccc(/C=C/C(=O)c2ccccc2)cc1Br`, the TGI in [1] is 35.6 µM; in assay [2], 36.9 µM; in [4], 37.1 µM; in assay [7], 31.2 µM.
